Measured values reported in publication PMC5712521, “Dendrogenin A drives LXR to trigger lethal autophagy in cancers” (Nature Communications, 2017).
Where a SMILES comes first, the peptide text is derived from it. The star is where a group is joined. Cbz = O=C(OCc1ccccc1)*; CH2F = FC*

Experiments:
[1] = target: T1, human liver-X-receptor LXRα (Homo sapiens, UniProt Q13133); experiment: LXRE-luciferase gene reporter assay in HEK293T, LXRα; format: cell-based; conditions: DDA analogs
T1 construct: expressed in transfected cells; host or cells: HEK293T
T1 sequence (Q13133 1-447): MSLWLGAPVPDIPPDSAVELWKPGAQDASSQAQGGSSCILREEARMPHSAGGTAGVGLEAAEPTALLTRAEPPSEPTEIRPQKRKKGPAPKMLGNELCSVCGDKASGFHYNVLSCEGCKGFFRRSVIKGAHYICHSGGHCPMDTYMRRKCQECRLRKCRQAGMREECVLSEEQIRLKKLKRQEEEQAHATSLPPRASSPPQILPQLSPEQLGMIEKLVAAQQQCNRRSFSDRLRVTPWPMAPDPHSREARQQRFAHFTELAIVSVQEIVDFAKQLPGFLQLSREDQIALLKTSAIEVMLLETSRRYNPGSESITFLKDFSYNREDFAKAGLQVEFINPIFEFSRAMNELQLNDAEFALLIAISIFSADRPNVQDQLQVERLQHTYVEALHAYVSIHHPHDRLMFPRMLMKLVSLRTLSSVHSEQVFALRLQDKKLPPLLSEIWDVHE
T1 sequence (P48443 1-463 partner): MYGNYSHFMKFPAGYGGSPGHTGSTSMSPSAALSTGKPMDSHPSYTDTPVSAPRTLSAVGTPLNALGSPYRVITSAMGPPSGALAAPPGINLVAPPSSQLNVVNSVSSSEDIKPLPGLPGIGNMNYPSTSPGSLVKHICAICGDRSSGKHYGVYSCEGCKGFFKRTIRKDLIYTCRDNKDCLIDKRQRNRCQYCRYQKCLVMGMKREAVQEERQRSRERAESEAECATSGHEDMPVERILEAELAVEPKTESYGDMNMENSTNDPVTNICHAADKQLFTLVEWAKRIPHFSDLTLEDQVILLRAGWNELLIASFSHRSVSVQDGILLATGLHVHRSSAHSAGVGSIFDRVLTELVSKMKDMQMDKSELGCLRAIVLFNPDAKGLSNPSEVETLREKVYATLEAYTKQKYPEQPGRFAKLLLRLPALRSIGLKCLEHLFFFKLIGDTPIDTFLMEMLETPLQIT
Source text: (§1) HEK293T were used for luciferase assays. Cells were transfected using the PolyEthylenImine (PEI) method with human retinoid-X receptor (RXRγ) and human liver-X-receptors (LXRα or LXRβ) with LXRE-Luc; RXRγ and human farnesoid X receptor (FXR) with EcRE-Luc; RXRγ and human steroid and xenobiotic X receptor (SXR) with DR4-Luc; RXRγ and human peroxisome proliferator activated receptors (PPARα, or PPARγ) with PPRE-Luc; RXRγ and human retinoic acid receptor (RARα) with DR1-Luc; human AHR and human ARNT with a DRE-Luc; human vitamin D receptor (VDR) with VDRE-Luc. Cells were transfected with plasmids encoding human glucocorticoid receptor (GR), progesterone receptor (PR), or androgen receptor (AR) with MMTV-Luc; or estrogen receptors (ERα and ERβ) with an ERE-Luc. The day after transfection with the luciferase reporter gene construct, cells were seeded in 12-well plates (50,000 cells per well). After 6 h, cells were then treated with the following ligands dissolved in ethanol: 10 nM estradiol (E2) for ERα and ERβ; 10 nM R1881 for AR; 10 nM R5020 for PR; 10 nM dexamethasone for GR; 10 µM fenofibrate for PPARα; 100 nM rosiglitazone (BRL 49653) for PPARγ; 100 nM cis-retinoic acid (cRA) for RAR; 10 nM dioxine for AHR, 10 µM rifampicine for SXR and 10 µM 22(R) hydroxycholesterol (22(R)HC) for LXRα and LXRβ. At the end of each treatment, cells were lysed in 100 μl lysis buffer (Promega). Luciferase activity was measured using the luciferase assay reagent (Promega), according to the manufacturer’s instructions. Protein concentrations were measured using the Bradford method to normalize luciferase activities. For each condition, luciferase activity was calculated from the data of three independent wells.

B16F10 cells = experiment: DDA-induced cytotoxicity (cell death); format: cell-based
Protocol: (§2) Melanoma cells were seeded into 6-well plates at 60,000 cells per well and AML cells at 250,000 cells/ml. The cells were then treated with control solvent vehicle (1/1000 ethanol in water) or DDA. Where indicated, treated cells were incubated in the presence or absence of each inhibitor for time shown. Cell death was determined by the trypan blue exclusion assay. Cells were scraped and resuspended in trypan blue solution (0.25% (w/v) in PBS) and counted in a Malassez cell under light microscopy. Cell viability was then quantified by counting viable (trypan blue-negative) and dead cells (trypan blue-positive).
(§3) Supplementary Fig. 1. a DDA inhibited m elanom a colony form ation. Melanom a cells were […]
(§4) a 0.5% solution of crystal violet in water and analyzed by microscopy. Images are representative of 5 independent experiments. b Evaluation of DDA-induced cytotoxicity (cytotox) and clonogenicity (clono) inhibition in a subset of human (H) and mouse (M) m elanom a cell lines. T he BRaf status in m elanom a cells lines is shown. […]

SKMEL-28 cells = experiment: DDA-induced cytotoxicity (cell death); format: cell-based
Protocol: as §2, §3, §4

AML cells = experiment: Immunoblot of caspase-3 and PARP in AML cells; format: cell-based, human; conditions: 50 µM z-VAD-fmk alone (0 µM DDA), 24 h
Protocol: Immunoblotting was carried out as described previously. Proteins were separated on SDS-PAGE gels, electro-transferred onto polyvinylidene difluoride membranes and incubated overnight at 4 °C with the following antibodies: anti-Atg3, anti-Atg5 (D1G9), anti-Atg7 (D12B11), anti-Beclin (D40C5), anti-caspase-3 (Cell Signaling), anti-Bcl-2 (Millipore), anti-Bax (Millipore), anti-LC3 (Sigma-Aldrich), anti-LXRα (SantaCruz), anti-LXRβ (SantaCruz), anti-Nur77 (Active motif), anti-NOR1 (R&D systems), anti-PARP (Cell Signaling), anti-Vps34 (Cell Signaling), or anti-Actin (Millipore). For visualization, an ECL plus kit (Amersham Biosciences) was used, and chemiluminescence was measured by autoradiography (Supplementary Fig. 9). Specific bands were quantified with ImageQuant software.
Supplementary Fig. 6. […]
AML cells treated with DDA for 24 h in the absence or presence of 50 µM z- VAD-fmk (a
caspase inhibitor). j Effect of z-VAD-fmk on DDA-induced c ytotox icit y in KG1 and HL60 cells. […]
Images are
representative of 3 independent experim ents.

[2] = target: T2, human liver-X-receptor LXRβ (Homo sapiens, UniProt P55055); experiment: LXRE-luciferase gene reporter assay in HEK293T, LXRβ; format: cell-based; conditions: DDA analogs
T2 construct: expressed in transfected cells; host or cells: HEK293T
Source text: as §1, with “After 6 h, cells were then treated with the following ligands dissolved in ethanol: 10 nM estradiol (E2) for ERα and ERβ; 10 nM R1881 for AR; 10 nM R5020 for PR; 10 nM dexamethasone for GR; 10 µM fenofibrate for PPARα; 100 nM rosiglitazone (BRL 49653) for PPARγ; 100 nM cis-retinoic acid (cRA) for RAR; 10 nM dioxine for AHR, 10 µM rifampicine for SXR and 10 µM 22(R) hydroxycholesterol (22(R)HC) for LXRα and LXRβ. At the end of each treatment, cells were lysed in 100 μl lysis buffer (Promega).” left out

T2 sequence (P55055 whole entry, one chain of several): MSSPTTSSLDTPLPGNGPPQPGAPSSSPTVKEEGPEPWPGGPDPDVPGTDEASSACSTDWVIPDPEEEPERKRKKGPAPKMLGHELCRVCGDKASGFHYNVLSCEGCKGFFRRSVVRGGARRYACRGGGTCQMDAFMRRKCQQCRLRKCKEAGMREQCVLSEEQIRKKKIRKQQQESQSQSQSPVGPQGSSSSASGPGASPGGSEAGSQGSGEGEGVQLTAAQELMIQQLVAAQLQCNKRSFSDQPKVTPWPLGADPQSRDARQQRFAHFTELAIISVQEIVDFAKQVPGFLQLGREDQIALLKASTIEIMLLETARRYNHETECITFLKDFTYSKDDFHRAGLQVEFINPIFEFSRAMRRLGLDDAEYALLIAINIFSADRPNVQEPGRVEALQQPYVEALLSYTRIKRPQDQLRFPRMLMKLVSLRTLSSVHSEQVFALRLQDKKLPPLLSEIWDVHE

Structure (SMILES) | LXRα-dependent agonistic or antagonistic activity [1] | cytotoxicity and clonogenicity inhibition (B16F10 cells) | cytotoxicity and clonogenicity inhibition (SKMEL-28 cells) | cleaved PARP, densitometry (AML cells) | cleaved casp 3, densitometry (AML cells) | LXRβ-dependent agonistic or antagonistic activity [2]
CC(C)CCCC(C)C1CCC2C3CC(n4cncc4CCN)C4(O)CC(O)CCC4(C)C3CCC12C (stereo not shown) [C17] | switch from antagonist to agonist activity | inactive | inactive |  |  | 
COC(=O)C[C@H](NC(=O)[C@H](C)NC(=O)[C@@H](NC(=O)OCc1ccccc1)C(C)C)C(=O)CF [z-VAD-fmk, reference compound] (Cbz-Val-Ala-Asp(OMe)-CH2F) |  |  |  | 0.6 | 0.4 | 
CC(C)CCCC(C)C1CCC2C3C[C@@H](NCCO)[C@@]4(O)C[C@@H](O)CC[C@]4(C)C3CC[C@]12C (stereo partly shown) [C41] | switch from antagonist to agonist activity |  |  |  |  | antagonist-agonist switch
